Read-outs that look alike come from different tables or passages of the source.
How the values were obtained:
rodent 9L glioma = assay: Inhibition of tumor proliferation, 9L cells counted after 5 days; assay type: cell-based; conditions: 120 h, read-out: growth inhibition
Method: The 9L gliosarcoma cell line was obtained from Dr. M. Barker at the University of California at San Francisco Brain Tumor Research Center (San Francisco, Calif., USA). The cells were maintained in tissue culture in Dulbecco's minimum essential medium with 10% fetal bovine serum, streptomycin (80.5 units/ml), penicillin (base; 80.5 units/ml), and 1% L-glutamine (all products from GIBCO laboratories, Grand Island, N.Y., USA). Cells were maintained in a humidified atmosphere of 5% CO2 at 37° C. The cells were grown to confluence, detached with 0.25% trypsin in Dulbecco's phosphate-buffered saline, and resuspended in medium.
Inhibition of tumor proliferation was tested against the rodent 9L glioma. […] The data were analyzed using the two-tailed Student's t-test.

9L gliosarcoma = test system: 9L gliosarcoma
Source text: 88 rats were intracranially implanted on Day 0 with 9L gliosarcoma.

Compound: CO[C@H]1C[C@@H]2CC[C@@H](C)[C@@](O)(O2)C(=O)C(=O)N2CCCC[C@H]2C(=O)O[C@H]([C@H](C)C[C@@H]2CC[C@@H](O)[C@H](OC)C2)CC(=O)[C@H](C)/C=C(\C)[C@@H](O)[C@@H](OC)C(=O)[C@H](C)C[C@H](C)/C=C/C=C/C=C/1C [Rapamycin, rapamycin]
- inhibition at 0.01 µg/mL (rodent 9L glioma; 0.01 microgram/ml): 34%
- inhibition at 10 µg/mL (rodent 9L glioma; 10 microgram/ml): 62%
- toxicity (9L gliosarcoma; rat, in vivo, ip, 2 mg/kg): none of the rats that received systemic injections of rapamycin showed overt signs of toxicity
- % Survival (9L gliosarcoma; treated Day 0, at Day 0): 100%
- % Survival (9L gliosarcoma; treated Day 0, at Day 12, 1st line): 100%
- % Survival (9L gliosarcoma; treated Day 0, at Day 12, 2nd line): 100%
- % Survival (9L gliosarcoma; treated Day 0, at Day 13, 1st line): 100%
- % Survival (9L gliosarcoma; treated Day 0, at Day 13, 2nd line): 100%
- % Survival (9L gliosarcoma; treated Day 0, at Day 14, 1st line): 100%
- % Survival (9L gliosarcoma; treated Day 0, at Day 14, 2nd line): 100%
- % Survival (9L gliosarcoma; treated Day 0, at Day 15, 1st line): 100%
- % Survival (9L gliosarcoma; treated Day 0, at Day 15, 2nd line): 100%
- % Survival (9L gliosarcoma; treated Day 0, at Day 16, 1st line): 100%
- % Survival (9L gliosarcoma; treated Day 0, at Day 16, 2nd line): 100%
- % Survival (9L gliosarcoma; treated Day 0, at Day 17, 1st line): 100%
- % Survival (9L gliosarcoma; treated Day 0, at Day 17, 2nd line): 100%
- % Survival (9L gliosarcoma; treated Day 0, at Day 18, 1st line): 100%
- % Survival (9L gliosarcoma; treated Day 0, at Day 18, 2nd line): 100%
- % Survival (9L gliosarcoma; treated Day 0, at Day 19, 1st line): 100%
- % Survival (9L gliosarcoma; treated Day 0, at Day 19, 2nd line): 100%
- % Survival (9L gliosarcoma; treated Day 0, at Day 20, 1st line): 100%
- % Survival (9L gliosarcoma; treated Day 0, at Day 20, 2nd line): 100%
- % Survival (9L gliosarcoma; treated Day 0, at Day 21, 1st line): 100%
- % Survival (9L gliosarcoma; treated Day 0, at Day 21, 2nd line): 100%
- % Survival (9L gliosarcoma; treated Day 0, at Day 22, 1st line): 100%
- % Survival (9L gliosarcoma; treated Day 0, at Day 22, 2nd line): 100%
- % Survival (9L gliosarcoma; treated Day 0, at Day 23, 1st line): 100%
- % Survival (9L gliosarcoma; treated Day 0, at Day 23, 2nd line): 100%
- % Survival (9L gliosarcoma; treated Day 0, at Day 24, 1st line): 100%
- % Survival (9L gliosarcoma; treated Day 0, at Day 24, 2nd line): 100%
- % Survival (9L gliosarcoma; treated Day 0, at Day 25, 1st line): 100%
- % Survival (9L gliosarcoma; treated Day 0, at Day 25, 2nd line): 75%
- % Survival (9L gliosarcoma; treated Day 0, at Day 26, 1st line): 75%
- % Survival (9L gliosarcoma; treated Day 0, at Day 26, 2nd line): 75%
- % Survival (9L gliosarcoma; treated Day 0, at Day 27, 1st line): 75%
- % Survival (9L gliosarcoma; treated Day 0, at Day 27, 2nd line): 75%
- % Survival (9L gliosarcoma; treated Day 0, at Day 28, 1st line): 75%
- % Survival (9L gliosarcoma; treated Day 0, at Day 28, 2nd line): 50%
- % Survival (9L gliosarcoma; treated Day 0, at Day 29, 1st line): 50%
- % Survival (9L gliosarcoma; treated Day 0, at Day 29, 2nd line): 50%
- % Survival (9L gliosarcoma; treated Day 0, at Day 30, 1st line): 50%
- % Survival (9L gliosarcoma; treated Day 0, at Day 30, 2nd line): 37.5%
- % Survival (9L gliosarcoma; treated Day 0, at Day 31, 1st line): 37.5%
- % Survival (9L gliosarcoma; treated Day 0, at Day 31, 2nd line): 37.5%
- % Survival (9L gliosarcoma; treated Day 0, at Day 32, 1st line): 37.5%
- % Survival (9L gliosarcoma; treated Day 0, at Day 32, 2nd line): 37.5%
- % Survival (9L gliosarcoma; treated Day 0, at Day 33, 1st line): 37.5%
- % Survival (9L gliosarcoma; treated Day 0, at Day 33, 2nd line): 37.5%
- % Survival (9L gliosarcoma; treated Day 0, at Day 35, 1st line): 37.5%
- % Survival (9L gliosarcoma; treated Day 0, at Day 35, 2nd line): 25%
- % Survival (9L gliosarcoma; treated Day 0, at Day 40, 1st line): 25%
- % Survival (9L gliosarcoma; treated Day 0, at Day 41, 2nd line): 0%
- % Survival (9L gliosarcoma; treated Day 5, at Day 0): 100%
- % Survival (9L gliosarcoma; treated Day 5, at Day 12, 1st line): 100%
- % Survival (9L gliosarcoma; treated Day 5, at Day 12, 2nd line): 100%
- % Survival (9L gliosarcoma; treated Day 5, at Day 13, 1st line): 100%
- % Survival (9L gliosarcoma; treated Day 5, at Day 13, 2nd line): 100%
- % Survival (9L gliosarcoma; treated Day 5, at Day 14, 1st line): 100%
- % Survival (9L gliosarcoma; treated Day 5, at Day 14, 2nd line): 100%

From patent US20090274764A1, “Hollow Foam Beads for Treatment of Glioblastoma” (priority 2008, published 2009)
